Assay [1] deals with human Werner helicase (WRN, amino acids 517-1235 with L1074F point mutation) (Homo sapiens (Human), UniProt Q14191, L1074F). In words: WRN (BV08) ADP-Glo assay. Conditions: human WRN (aa 517-1235, L1074F), read-out: ADP-Glo_hWRN_IC50. It is filed as biochemical. The gist of the method: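 ADP-Glo luminescence read after 60 min, 25 °C reaction of 0.15 nM WRN (517-1235, L1074F, Sf9-expressed, tag removed) with 0.1 nM DNA duplex and 5 μM ATP, following 15 min compound preincubation; 20 mM Bicine pH 7.5, 1% DMSO. IC50 from 3- or 4-parameter fit of % inhibition.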
human Werner helicase (WRN, amino acids 517-1235 with L1074F point mutation), sequence (Q14191 other isoform, or with tags, fused parts or gaps L1074F (already in the parent)): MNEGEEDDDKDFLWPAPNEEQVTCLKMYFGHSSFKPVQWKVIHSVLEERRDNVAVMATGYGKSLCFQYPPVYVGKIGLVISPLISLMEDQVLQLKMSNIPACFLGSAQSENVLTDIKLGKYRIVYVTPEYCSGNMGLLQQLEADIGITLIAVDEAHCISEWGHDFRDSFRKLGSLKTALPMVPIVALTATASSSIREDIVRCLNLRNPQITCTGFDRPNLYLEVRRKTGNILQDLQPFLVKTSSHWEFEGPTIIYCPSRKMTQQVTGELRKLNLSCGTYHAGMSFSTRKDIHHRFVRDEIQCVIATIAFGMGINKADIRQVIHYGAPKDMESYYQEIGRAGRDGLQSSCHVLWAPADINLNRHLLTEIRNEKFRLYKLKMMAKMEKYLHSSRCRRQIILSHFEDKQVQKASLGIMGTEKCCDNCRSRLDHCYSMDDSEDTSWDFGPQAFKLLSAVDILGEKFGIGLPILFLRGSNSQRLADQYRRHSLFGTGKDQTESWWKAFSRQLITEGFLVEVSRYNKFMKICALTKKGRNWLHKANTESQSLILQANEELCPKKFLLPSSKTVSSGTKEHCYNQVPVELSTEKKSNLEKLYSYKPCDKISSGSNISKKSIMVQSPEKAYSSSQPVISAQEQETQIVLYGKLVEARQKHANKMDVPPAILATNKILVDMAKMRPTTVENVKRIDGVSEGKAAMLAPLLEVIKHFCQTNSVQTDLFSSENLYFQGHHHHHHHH
(In general: In ADP-Glo the light output rises with the ADP produced.)

Assay [2] has as its system p21 induction in HCT 116 cells. In words: p21 induction in cells (In-Cell Western, p21/GAPDH ratio). Format: cell-based. Conditions: Homo sapiens, 24 h compound incubation, read-out: p21_EC50. The procedure, abridged: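 EC50 values come from nonlinear fits of percent activation, defined by the 800/700 nm p21-to-GAPDH ratio scaled between DMSO (low) and internal WRN inhibitor (high) controls. In-Cell Western read after 24 h compound exposure of HCT 116 cells at 37° C. Duplicate 11-point series, 2-fold steps, usually starting at 10 μM.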

For the compound `CCc1c(N2CCN(C(=O)c3ncnc(C)c3O)[C@H]3CC[C@@H]32)c(=O)c2nn(-c3ccnc(OC)c3)nc2n1CC(=O)Nc1ccc(C(F)(F)F)cc1F` [Compound I-126, 2-{5-ethyl-6-[(1S,6S)-5-(5-hydroxy-6-methylpyrimidine-4-carbonyl)-2,5-diazabicyclo[4.2.0]octan-2-yl]-2-(2-methoxypyridin-4-yl)-7-oxo-2H,4H,7H-[1,2,3]triazolo[4,5-b]pyridin-4-yl}-N-[2-fluoro-4-(trifluoromethyl)phenyl]acetamide], the IC50 in assay [1] was not above 5 nM. Also, in assay [2], the EC50 is not above 500 nM.

Turning to `CCc1c(N2CCN(C(=O)c3ncnc(C)c3O)CC2)c(=O)c2nn(-c3ccccn3)nc2n1CC(=O)Nc1ccc(C(F)(F)F)cc1Cl` [Compound I-127, N-[2-chloro-4-(trifluoromethyl)phenyl]-2-{5-ethyl-6-[4-(5-hydroxy-6-methylpyrimidine-4-carbonyl)piperazin-1-yl]-7-oxo-2-(pyridin-2-yl)-2H,4H,7H-[1,2,3]triazolo[4,5-b]pyridin-4-yl}acetamide], the IC50 in assay [1] is not above 5 nM. Further, in assay [2], the EC50 was not above 500 nM.

`CCc1c(N2CCN(C(=O)c3c(OC)ncc(C)c3O)CC2)c(=O)c2nn(-c3ccnc(OC)c3)nc2n1CC(=O)NC12CC(C(F)(F)F)(C1)C2` [Compound I-128, 2-{5-ethyl-6-[4-(4-hydroxy-2-methoxy-5-methylpyridine-3-carbonyl)piperazin-1-yl]-2-(2-methoxypyridin-4-yl)-7-oxo-2H,4H,7H-[1,2,3]triazolo[4,5-b]pyridin-4-yl}-N-[3-(trifluoromethyl)bicyclo[1.1.1]pentan-1-yl]acetamide]: the IC50 in assay [1] was in the range of 5 to 50 nM. For the same compound, the EC50 in assay [2] was not above 500 nM.

`CCc1c(N2CCN(C(=O)c3c(OC)ncc(C)c3O)CC2)c(=O)c2nn(-c3ccnc(OC)c3)nc2n1CC(=O)NC12CC(C3CC3)(C1)C2` [Compound I-129, N-{3-cyclopropylbicyclo[1.1.1]pentan-1-yl}-2-{5-ethyl-6-[4-(4-hydroxy-2-methoxy-5-methylpyridine-3-carbonyl)piperazin-1-yl]-2-(2-methoxypyridin-4-yl)-7-oxo-2H,4H,7H-[1,2,3]triazolo[4,5-b]pyridin-4-yl}acetamide]: the IC50 in assay [1] was in the range of 5 to 50 nM. The EC50 in assay [2] is not above 500 nM.

Turning to `CCc1c(N2CCN(C(=O)c3c(OC)ncc(C)c3O)CC2)c(=O)c2nn(-c3ccnc(C)c3)nc2n1CC(=O)NC12CC(C(C)C)(C1)C2` [Compound I-130, 2-{5-ethyl-6-[4-(4-hydroxy-2-methoxy-5-methylpyridine-3-carbonyl)piperazin-1-yl]-2-(2-methylpyridin-4-yl)-7-oxo-2H,4H,7H-[1,2,3]triazolo[4,5-b]pyridin-4-yl}-N-[3-(propan-2-yl)bicyclo[1.1.1]pentan-1-yl]acetamide], the IC50 in assay [1] was in the range of 5 to 50 nM. Besides, the EC50 in assay [2] was not above 500 nM.

As for `CCc1c(N2CCN(C(=O)c3c(OC)ncc(C)c3O)CC2)c(=O)c2nn(-c3ccnc(OC)c3)nc2n1CC(=O)NC12CC(CC(F)(F)F)(C1)C2` [Compound I-131, 2-{5-ethyl-6-[4-(4-hydroxy-2-methoxy-5-methylpyridine-3-carbonyl)piperazin-1-yl]-2-(2-methoxypyridin-4-yl)-7-oxo-2H,4H,7H-[1,2,3]triazolo[4,5-b]pyridin-4-yl}-N-[3-(2,2,2-trifluoroethyl)bicyclo[1.1.1]pentan-1-yl]acetamide], in assay [1], the IC50 is 5 to 50 nM. For the same compound, in assay [2], the EC50 lay within 500 to 2000 nM.

Consider `CCc1c(N2CCN(C(=O)c3c(O)ccc4ncoc34)CC2)c(=O)c2nn(C3CC3)nc2n1CC(=O)Nc1ccc(C(F)(F)F)cc1Cl` [Compound I-133, N-[2-chloro-4-(trifluoromethyl)phenyl]-2-{2-cyclopropyl-5-ethyl-6-[4-(6-hydroxy-1,3-benzoxazole-7-carbonyl)piperazin-1-yl]-7-oxo-2H,4H,7H-[1,2,3]triazolo[4,5-b]pyridin-4-yl}acetamide], for which the IC50 in assay [1] is 5 to 50 nM. Moreover, the EC50 in assay [2] is not above 500 nM.

Consider `CCc1c(N2CCN(C(=O)c3ncnc(C)c3O)CC2)c(=O)c2nn(-c3ccncc3)nc2n1CC(=O)NC12CC(C(C)C)(C1)C2` [Compound I-134, 2-{5-ethyl-6-[4-(5-hydroxy-6-methylpyrimidine-4-carbonyl)piperazin-1-yl]-7-oxo-2-(pyridin-4-yl)-2H,4H,7H-[1,2,3]triazolo[4,5-b]pyridin-4-yl}-N-[3-(propan-2-yl)bicyclo[1.1.1]pentan-1-yl]acetamide], for which the IC50 in assay [1] is 5 to 50 nM. For the same compound, in assay [2], the EC50 is 500 to 2000 nM.

For the compound `CCc1c(N2CCN(C(=O)c3ncnc(C)c3O)CC2)c(=O)c2nn(-c3ccnc(OC)c3)nc2n1CC(=O)NC12CC(C3CC3)(C1)C2` [Compound I-135, N-{3-cyclopropylbicyclo[1.1.1]pentan-1-yl}-2-{5-ethyl-6-[4-(5-hydroxy-6-methylpyrimidine-4-carbonyl)piperazin-1-yl]-2-(2-methoxypyridin-4-yl)-7-ox0-2H,4H,7H-[1,2,3]triazolo[4,5-b]pyridin-4-yl}acetamide], the IC50 in assay [1] is 5 to 50 nM. For the same compound, the EC50 in assay [2] was not above 500 nM.

As to `CCc1c(N2CCN(C(=O)c3c(O)cccc3OC(F)(F)F)CC2)c(=O)c2nn(-c3ccnc(OC)c3)nc2n1CC(=O)NC12CC(C3CC3)(C1)C2` [Compound I-136, N-{3-cyclopropylbicyclo[1.1.1]pentan-1-yl}-2-(5-ethyl-6-{4-[2-hydroxy-6-(trifluoromethoxy)benzoyl]piperazin-1-yl}-2-(2-methoxypyridin-4-yl)-7-oxo-2H,4H,7H-[1,2,3]triazolo[4,5-b]pyridin-4-yl)acetamide], in assay [1], the IC50 is 5 to 50 nM. In addition, the EC50 in assay [2] lay in the range of 2000 to 5000 nM.

`CCc1c(N2CCN(C(=O)c3c(O)ccc4ncoc34)[C@H]3CC[C@@H]32)c(=O)c2nn(-c3ccnc(OC)c3)nc2n1CC(=O)NC12CC(C(C)C)(C1)C2` [Compound I-137, 2-{5-ethyl-6-[(1S,6S)-5-(6-hydroxy-1,3-benzoxazole-7-carbonyl)-2,5-diazabicyclo[4.2.0]octan-2-yl]-2-(2-methoxypyridin-4-yl)-7-oxo-2H,4H,7H-[1,2,3]triazolo[4,5-b]pyridin-4-yl}-N-[3-(propan-2-yl)bicyclo[1.1.1]pentan-1-yl]acetamide]: the IC50 in assay [1] is not above 5 nM. In addition, the EC50 in assay [2] is not above 500 nM.

With `CCc1c(N2CCN(C(=O)c3ncnc(C)c3O)CC2)c(=O)c2nn(-c3ccncc3)nc2n1CC(=O)NC12CC(CC)(C1)C2` [Compound I-138, 2-{5-ethyl-6-[4-(5-hydroxy-6-methylpyrimidine-4-carbonyl)piperazin-1-yl]-7-oxo-2-(pyridin-4-yl)-2H,4H,7H-[1,2,3]triazolo[4,5-b]pyridin-4-yl}-N-{3-ethylbicyclo[1.1.1]pentan-1-yl}acetamide], the IC50 in assay [1] is 5 to 50 nM. For the same compound, the EC50 in assay [2] lay in the range of 500 to 2000 nM.

As for `CCc1c(N2CCN(C(=O)c3c(O)ccc4ncoc34)CC2)c(=O)c2nn(C(C)C)nc2n1CC(=O)Nc1ccc(C(F)(F)F)cc1Cl` [Compound I-139, N-[2-chloro-4-(trifluoromethyl)phenyl]-2-{5-ethyl-6-[4-(6-hydroxy-1,3-benzoxazole-7-carbonyl)piperazin-1-yl]-7-oxo-2-(propan-2-yl)-2H,4H,7H-[1,2,3]triazolo[4,5-b]pyridin-4-yl}acetamide], in assay [1], the IC50 was not above 5 nM. Also, the EC50 in assay [2] is not above 500 nM.
